Measured values: patent publication US20260335293A1, “USE OF NOVEL COMPOUND FOR TREATING INTRACTABLE DISEASES” (YJ CERAPEUTICS INC., priority 2023, published 2026)

Assays:
p38MAPK = p38MAPK phosphorylation in spinal cord of SNI model, Western blot; format: in vivo, Sprague-Dawley rats
Procedure: To be used as a peripheral nerve injury animal model, a sciatic nerve injury (SNI) model was prepared (FIG. 1C). Specifically, 200 to 220 g of male adult Sprague-Dawley rats were anesthetized by intraperitoneal injection of chloral hydrate (500 mg/kg), and then three terminal branches (tibial, common peroneal, and sural nerves) of the right sciatic nerve were approached, and the tibia nerve and the peroneal nerve were tightly ligated with 4-0 silk, and neurectomy was performed at a distal 3 mm position of the ligation site. At this time, a Sham group was a group that exposed only the sciatic nerve without damage.
To analyze the activation of microglia in the spinal cord, which were known to play an important role in the induction/persistence of neuropathic pain, 4 weeks after nerve injury in the SNI animal model, the spinal cord of 4 and 5 lumbar vertebrae was stained with OX-42 to confirm changes in cell shape and intensity. […] The supernatant was transferred to a new microcentrifuge, the protein concentration was measured using a BCA kit, and samples for Western blot were prepared by adding a 1× sample buffer and boiling for 5 minutes. […]

UPIII = experiment: Urothelial marker UPIII in SCI model, Western blot; format: in vivo, Sprague-Dawley rats; details: day 3 after SCI
[1] = test system: spleen of psoriasis mouse model; experiment: Spleen hypertrophy in IMQ psoriasis model; format: in vivo, C57BL/6 mouse; details: Day 6, vs Vehicle
Procedure: (§1) Psoriasis caused by excessive production of skin cells was a chronic skin disease associated with various factors, including autoimmune diseases, and its symptoms included red and thickened skin and abnormally occurring scaling. […] Specifically, the back region of a C57BL/6 mouse (male, 18 to 20 g, 8 weeks) (Daehan Biolink, Eumseong, Korea) was shaved to remove hair, and then applied with IMQ cream (83 mg/day) (5%) for consecutive 5 days from Day 0 to Day 4 to induce psoriasis-like skin inflammation, and a normal control mouse (Sham) was applied with Vaseline cream (FIG. 16A).
In order to confirm the effect of YJ102 (Chemical Formula 1), a compound of the present disclosure, on psoriasis, YJ102 dissolved in DMSO, methyl pyrrolidinone, and water (1:1.5:1) was administered intraperitoneally (5 mg/kg) for a total of 3 days on Day 2, Day 3, and Day 4, and the Vehicle group was administered in the same amount of a solution of DMSO, methyl pyrrolidinone, and water (1:1.5:1) (FIG. 16A). To assess daily skin changes, PASI scores were used for erythema and scaling. The PASI score was evaluated as a severity scale of 0 to 4, in which 0 meant none, 1 meant mild, 2 meant moderate, 3 meant severe, and 4 meant very severe. (PASI Reference: Yashpal Manchanda, Abhishek De, Sudip Das, and Disha Chakraborty. Disease Assessment in Psoriasis. Indian J Dermatol. 2023 May-June; 68 (3): 278-281.) […]

[2] = test system: ED-1-positive macrophages; experiment: Introduction of macrophages (ED-1) into bladder of SCI model, immunofluorescence; format: in vivo, Sprague-Dawley rats; details: day 7 after SCI
[3] = test system: proNGF in Raw 264.7 macrophage cell line; experiment: proNGF expression in LPS-stimulated Raw 264.7 macrophage cell line; format: cell-based; details: LPS 1 μg/ml; YJ102 30 minutes before LPS
Procedure: In order to determine whether YJ102 affected the production of proNGF as a ligand of p75, the expression of proNGF in the bladder was confirmed by RT-PCR, Western blot analysis, and immunofluorescence staining. In addition, for further verification, a macrophage cell line Raw 264.7 (Korea Cell Line Bank, Seoul, Korea) was stimulated with 1 μg/ml of LPS, and the effect of YJ102 on the production of proNGF was investigated. At this time, YJ102 was dissolved in DMSO and treated 30 minutes before LPS treatment.

astrocytes (GFAP) = experiment: Astrocyte activation in spinal cord of SNI model, GFAP immunohistochemistry and Western blot; format: in vivo, Sprague-Dawley rats; details: L4-5 spinal cord
p75 = p75 expression in urothelium of SCI model, RT-PCR and Western blot; format: in vivo, Sprague-Dawley rats; details: after SCI
sedation = experiment: Sedation as side effect of the drug; format: in vivo, Sprague-Dawley rats; details: 100 mg/kg
TRPM7 = TRPM7 expression in SNI model, Western blot; format: in vivo, Sprague-Dawley rats; details: 4 weeks after nerve injury
Procedure: FIG. 5C is a diagram showing results of analyzing the expression of TRMP7 in an SNI animal model by Western blot.
To determine through which signaling pathway YJ102 inhibited a neuroinflammatory response, there was analyzed increased expression and activation of histone demethylase JMJD3 and expression changes of factors associated with JAK/STAT3 pathway, mTOR pathway, and TRPM7-mediated pathway, which were known as important regulatory mechanisms and epigenetic regulators mediating the neuroinflammatory response, in the tissues of the SNI animal model 4 weeks after nerve injury.

caspase-3 = experiment: Caspase-3 activation (cleaved caspase-3) in urothelium of SCI model, Western blot; format: in vivo, Sprague-Dawley rats; details: day 3 after SCI
[4] = test system: psoriasis (IMQ psoriasis animal model); experiment: Erythema and scaling (PASI) in IMQ psoriasis model; format: in vivo, C57BL/6 mouse
Procedure: as §1
In order to confirm the effect of YJ102 (Chemical Formula 1), a compound of the present disclosure, on psoriasis, YJ102 dissolved in DMSO, methyl pyrrolidinone, and water (1:1.5:1) was administered intraperitoneally (5 mg/kg) for a total of 3 days on Day 2, Day 3, and Day 4, and the Vehicle group was administered in the same amount of a solution of DMSO, methyl pyrrolidinone, and water (1:1.5:1) (FIG. 16A). To assess daily skin changes, PASI scores were used for erythema and scaling. The PASI score was evaluated as a severity scale of 0 to 4, in which 0 meant none, 1 meant mild, 2 meant moderate, 3 meant severe, and 4 meant very severe. (PASI Reference: Yashpal Manchanda, Abhishek De, Sudip Das, and Disha Chakraborty. Disease Assessment in Psoriasis. Indian J Dermatol. 2023 May-June; 68 (3): 278-281.)

[5] = test system: collagen in bladder muscle; experiment: Collagen content in bladder muscle (Masson's trichrome) in SCI model; format: in vivo, Sprague-Dawley rats; details: 5 mg/kg i.p., day 1 after SCI, vs normal group
[6] = 5 mg/kg i.p. Days 2-4, vs Vehicle

## CCc1ccc(N(C(=O)COC)c2nc3cc(Cl)ccc3o2)cc1 [YJ102]
p38MAPK
  amount of p-p38MAPK: significantly reduced
UPIII
  reduction in level of UPIII (urothelial loss): inhibited
[1]
  size of the spleen: significantly reduced
  weight of the spleen: significantly reduced
[2]
  introduction of ED-1-positive macrophages into the bladder: significantly inhibited
[3]
  mRNA expression of proNGF: significantly inhibited
  protein expression of proNGF: significantly inhibited
Astrocytes (GFAP); Western blot
  GFAP expression: significantly decreased
Astrocytes (GFAP); immunohistochemistry
  GFAP expression intensity: significantly decreased
p75; RT-PCR (mRNA)
  p75 expression: significantly reduced
p75; Western blot (protein)
  p75 expression: significantly reduced
sedation
  sedation: sedation was not observed
TRPM7
  expression of TRPM7: inhibited the expression
caspase-3
  caspase-3 activation: inhibited
[4]; 5 mg/kg i.p. Days 2-4, Day 6
  symptoms (erythema and scaling) on Day 6: appeared to be alleviated
[4]; [6]
  degree of erythema (PASI): significantly lower than that of the Vehicle group
  degree of scaling (PASI): significantly lower than that of the Vehicle group
[5]
  collagen content in the bladder muscle: maintained at a level almost similar to that of the normal group
